pIC50: −log10 of the molar value. Several values for one entry are separate records, joined by “and”; a condition that tells them apart may be missing. Equal entries are not always repeated.
How the values were obtained:
[1] = tested on: Variant PPO Enzyme F420M (Amaranthus PPO2); test: biochemical; type: biochemical; conditions: variant F420M vs wild type
[2] = tested on: Variant PPO Enzyme L397Q, F420M (Amaranthus PPO2); type: biochemical; conditions: variant L397Q, F420M vs wild type
[3] = tested on: Variant PPO Enzyme L397Q (Amaranthus PPO2); type: biochemical; conditions: variant L397Q vs wild type
[4] = tested on: Variant PPO Enzyme R128A, F420V (Amaranthus PPO2); test: biochemical; type: biochemical; conditions: variant R128A, F420V vs wild type
[5] = tested on: Variant PPO Enzyme L397Q, F420V (Amaranthus PPO2); type: biochemical; conditions: variant L397Q, F420V vs wild type
[6] = tested on: Transgenic T2 Arabidopsis plants harboring PPO inhibitor tolerance trait; test: Lab based germination assay in 48-well plates (Table i); type: in vivo, Arabidopsis thaliana; conditions: construct AMATU_PPO2_TP_hemG (Escherichia coli); in comparison to wild type plants
[7] = tested on: Variant PPO Enzyme F420V (Amaranthus PPO2); type: biochemical; conditions: variant F420V vs wild type
[8] = molecular target: Wild Type PPO Enzyme (Amaranthus PPO2, SEQ ID NO: 1) (Amaranthus tuberculatus, UniProt Q0NZW9); test: PPO enzyme assay (recombinant), wild type; type: biochemical
[9] = tested on: Transgenic T2 or T3 Soybean plants harbouring PPO inhibitor tolerance trait; test: Soybean Trial, post spray, injury score 14 DAT; type: in vivo
Method: Soybean cv Jake is transformed as previously described by Siminszky et al., Phytochem Rev. 5:445-458 (2006). After regeneration, transformants are transplanted to soil in small pots, placed in growth chambers (16 hr day/8 hr night; 25° C. day/23° C. night; 65% relative humidity; 130-150 microE m-2 s-1) and subsequently tested for the presence of the T-DNA via Taqman analysis. After a few weeks, healthy, transgenic positive, single copy events are transplanted to larger pots and allowed to grow in the growth chamber. An optimal shoot for cutting is about 3-4 inches tall, with at least two nodes present. Each cutting is taken from the original transformant (mother plant) and dipped into rooting hormone powder (indole-3-butyric acid, IBA). The cutting is then placed in oasis wedges inside a bio-dome. The mother plant is taken to maturity in the greenhouse and harvested for seed. Wild type cuttings are also taken simultaneously to serve as negative controls. The cuttings are kept in the bio-dome for 5-7 days and then transplanted to 3 inch pots and then acclimated in the growth chamber for two more days. Subsequently, the cuttings are transferred to the greenhouse, acclimated for approximately 4 days prior to spray. T0 or 2-week old T1 plants are sprayed with a treatment of the uracilpyridines as disclosed SUPRA and photosynthesis inhibitor diuron as negative control. Herbicide injury evaluations are taken at 2, 7, 14 and 21 days after treatment.
Transgenic T2 or T3 Soybean plants harbouring PPO inhibitor tolerance trait, were sprayed post with the indicated amount of uracilpyridine+1% (v/v) MSO. Evaluation performed 14 Days After Treatment (DAT) and shown as injury (0-9) relative to non-transgenic treated plants. Injury Scale: 0-9, 0=no imjury, 9=maximum injury. Note: segregating lines.

[10] = tested on: Variant PPO Enzyme R128A, F420M (Amaranthus PPO2); type: biochemical; conditions: variant R128A, F420M vs wild type
[11] = tested on: Transgenic T2 Arabidopsis plants and ARBTH WT MC24 non-transgenic; test: Greenhouse post spray test, injury 14 DAT (Tables ii, iii); type: in vivo, Arabidopsis thaliana; conditions: Arabidopsis thaliana, 336 h;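 further: value is percent injury to the sprayed plants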

Chain of Wild Type PPO Enzyme (Amaranthus PPO2, SEQ ID NO: 1) (Q0NZW9 1-534): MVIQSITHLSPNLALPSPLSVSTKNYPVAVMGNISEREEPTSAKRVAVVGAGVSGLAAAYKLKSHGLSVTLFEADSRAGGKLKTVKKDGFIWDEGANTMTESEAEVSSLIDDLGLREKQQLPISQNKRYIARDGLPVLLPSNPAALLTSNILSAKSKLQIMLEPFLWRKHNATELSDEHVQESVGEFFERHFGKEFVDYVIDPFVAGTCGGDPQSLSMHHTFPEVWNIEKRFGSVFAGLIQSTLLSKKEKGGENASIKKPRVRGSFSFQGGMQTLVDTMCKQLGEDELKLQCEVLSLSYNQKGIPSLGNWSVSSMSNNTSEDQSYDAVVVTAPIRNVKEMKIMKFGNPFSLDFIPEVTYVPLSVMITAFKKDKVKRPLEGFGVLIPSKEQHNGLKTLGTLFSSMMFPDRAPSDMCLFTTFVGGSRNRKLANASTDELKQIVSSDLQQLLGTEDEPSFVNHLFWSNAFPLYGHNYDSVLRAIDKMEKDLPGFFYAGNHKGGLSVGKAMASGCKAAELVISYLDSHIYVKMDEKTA

With `CCOC(=O)COc1ncccc1Oc1nc(-n2c(=O)cc(C(F)(F)F)n(C)c2=O)c(F)cc1Cl` [Uracilpyridine 2, ethyl 2-[[3-[[3-chloro-5-fluoro-6-[3-methyl-2,6-dioxo-4-(trifluoromethyl)pyrimidin-1-yl]-2-pyridyl]oxy]-2-pyridyl]oxy]acetate] the “Tolerance Factor (R/S)” value [1] was 244 and 415, the “Tolerance Factor (R/S)” value [2] was 4843 and the “Tolerance Factor (R/S)” value [3] was 7. For the same molecule, the “Tolerance Factor (R/S)” value [4] was 796 and 1105, the “Tolerance Factor (R/S)” value [5] was 13678 and the “Tolerance Factor” value [6] was 6400. For the same molecule, the “Tolerance Factor (R/S)” value [7] was 567, the pIC50 [8] was 9.73 and the “injury (0-9)” value ([9]; L397E, F420M Event 2, 25 g/ha + 1% (v/v) MSO) was 0 (No Injury). For the same molecule, the “injury (0-9)” value ([9]; L397E, F420M Event 2, 50 g/ha + 1% (v/v) MSO) was 0 (No Injury), the “injury (0-9)” value ([9]; L397E, F420M Event 2, 100 g/ha + 1% (v/v) MSO) was 0 (No Injury) and the “injury (0-9)” value ([9]; L397E, F420V Event 1, 25 g/ha + 1% (v/v) MSO) was 0 (No Injury). The “injury (0-9)” value ([9]; L397E, F420V Event 1, 50 g/ha + 1% (v/v) MSO) was 0 (No Injury), the “injury (0-9)” value ([9]; L397E, F420V Event 1, 100 g/ha + 1% (v/v) MSO) was 0 (No Injury) and the “injury (0-9)” value ([9]; L397Q, F420M Event 3, 25 g/ha + 1% (v/v) MSO) was 0 (No Injury) and 3. The “injury (0-9)” value ([9]; L397Q, F420M Event 3, 50 g/ha + 1% (v/v) MSO) was 3, the “injury (0-9)” value ([9]; L397Q, F420M Event 3, 100 g/ha + 1% (v/v) MSO) was 3 and 2 and the “Tolerance Factor (R/S)” value [10] was 521. It also gave a pest or weed control at 50 g/ha ([11]; Table ii, ALOMY_PPO2_R137L_F438V event F, 50 g ai/ha) of 18%, a pest or weed control at 100 g/ha ([11]; Table ii, ALOMY_PPO2_R137L_F438V event F, 100 g ai/ha) of 18% and a pest or weed control at 200 g/ha ([11]; Table ii, ALOMY_PPO2_R137L_F438V event F, 200 g ai/ha) of 23%. The pest or weed control at 50 g/ha ([11]; Table ii, ALOMY_PPO2_R137L_F438V event G, 50 g ai/ha) was 0%, the pest or weed control at 100 g/ha ([11]; Table ii, ALOMY_PPO2_R137L_F438V event G, 100 g ai/ha) was 10% and the pest or weed control at 200 g/ha ([11]; Table ii, ALOMY_PPO2_R137L_F438V event G, 200 g ai/ha) was 20%. It also gave a pest or weed control at 50 g/ha ([11]; Table ii, ALOMY_PPO2_TP_AMATU_PPO2_R128M_F420I event R, 50 g ai/ha) of 45%, a pest or weed control at 100 g/ha ([11]; Table ii, ALOMY_PPO2_TP_AMATU_PPO2_R128M_F420I event R, 100 g ai/ha) of 45% and a pest or weed control at 200 g/ha ([11]; Table ii, ALOMY_PPO2_TP_AMATU_PPO2_R128M_F420I event R, 200 g ai/ha) of 75%. The pest or weed control at 50 g/ha ([11]; Table ii, AMATU_PPO2_R128A_F420M event Q, 50 g ai/ha) was 10%, the pest or weed control at 100 g/ha ([11]; Table ii, AMATU_PPO2_R128A_F420M event Q, 100 g ai/ha) was 15% and the pest or weed control at 200 g/ha ([11]; Table ii, AMATU_PPO2_R128A_F420M event Q, 200 g ai/ha) was 65%. The pest or weed control at 50 g/ha ([11]; Table ii, AMATU_PPO2_R128M_F420I event K, 50 g ai/ha) was 18%, the pest or weed control at 100 g/ha ([11]; Table ii, AMATU_PPO2_R128M_F420I event K, 100 g ai/ha) was 58% and the pest or weed control at 200 g/ha ([11]; Table ii, AMATU_PPO2_R128M_F420I event K, 200 g ai/ha) was 70%. For the same molecule, the pest or weed control at 100 g/ha ([11]; Table ii, AMATU_PPO2_TP_hemG event R, 100 g ai/ha) was 40%, the pest or weed control at 200 g/ha ([11]; Table ii, AMATU_PPO2_TP_hemG event R, 200 g ai/ha) was 35% and the pest or weed control at 1 g/ha ([11]; Table ii, AMATU_PPO2_WT event Q, 1 g ai/ha) was 23%. It also gave a pest or weed control at 5 g/ha ([11]; Table ii, AMATU_PPO2_WT event Q, 5 g ai/ha) of 100%, a pest or weed control at 10 g/ha ([11]; Table ii, AMATU_PPO2_WT event Q, 10 g ai/ha) of 100% and a pest or weed control at 30 g/ha ([11]; Table ii, AMATU_PPO2_WT event Q, 30 g ai/ha) of 100%. The pest or weed control at 1 g/ha ([11]; Table ii, ARBTH WT MC24 non-transgenic, 1 g ai/ha + 1% MSO) was 100%, the pest or weed control at 5 g/ha ([11]; Table ii, ARBTH WT MC24 non-transgenic, 5 g ai/ha + 1% MSO) was 100% and the pest or weed control at 10 g/ha ([11]; Table ii, ARBTH WT MC24 non-transgenic, 10 g ai/ha + 1% MSO) was 100%. The pest or weed control at 30 g/ha ([11]; Table ii, ARBTH WT MC24 non-transgenic, 30 g ai/ha + 1% MSO) was 100%, the pest or weed control at 50 g/ha ([11]; Table ii, ARBTH WT MC24 non-transgenic, 50 g ai/ha + 1% MSO) was 100% and the pest or weed control at 80 g/ha ([11]; Table ii, ARBTH WT MC24 non-transgenic, 80 g ai/ha + 1% MSO) was 100%. For the same molecule, the pest or weed control at 100 g/ha ([11]; Table ii, ARBTH WT MC24 non-transgenic, 100 g ai/ha + 1% MSO) was 100%, the pest or weed control at 200 g/ha ([11]; Table ii, ARBTH WT MC24 non-transgenic, 200 g ai/ha + 1% MSO) was 100% and the pest or weed control at 30 g/ha ([11]; Table ii, ARBTH_PPO1_S305L_Y426M event O, 30 g ai/ha) was 33%. The pest or weed control at 50 g/ha ([11]; Table ii, ARBTH_PPO1_S305L_Y426M event O, 50 g ai/ha as printed (row position suggests 5)) was 0%, the pest or weed control at 80 g/ha ([11]; Table ii, ARBTH_PPO1_S305L_Y426M event O, 80 g ai/ha) was 45% and the pest or weed control at 100 g/ha ([11]; Table ii, ARBTH_PPO1_S305L_Y426M event O, 100 g ai/ha as printed (row position suggests 10)) was 0%. It also gave a pest or weed control at 1 g/ha ([11]; Table ii, ARBTH_PPO1_WT event Q, 1 g ai/ha) of 15%, a pest or weed control at 5 g/ha ([11]; Table ii, ARBTH_PPO1_WT event Q, 5 g ai/ha) of 100% and a pest or weed control at 10 g/ha ([11]; Table ii, ARBTH_PPO1_WT event Q, 10 g ai/ha) of 100%. For the same molecule, the pest or weed control at 30 g/ha ([11]; Table ii, ARBTH_PPO1_WT event Q, 30 g ai/ha) was 100%, the pest or weed control at 50 g/ha ([11]; Table iii, ALOMY_PPO2_R137L_F438M (unnamed lines), 50 g ai/ha) was 0% and the pest or weed control at 100 g/ha ([11]; Table iii, ALOMY_PPO2_R137L_F438M (unnamed lines), 100 g ai/ha) was 0%. For the same molecule, the pest or weed control at 50 g/ha ([11]; Table iii, ALOMY_PPO2_R137L_F438V (unnamed lines), 50 g ai/ha) was 0%, the pest or weed control at 100 g/ha ([11]; Table iii, ALOMY_PPO2_R137L_F438V (unnamed lines), 100 g ai/ha) was 0% and the pest or weed control at 50 g/ha ([11]; Table iii, AMATU_PPO2_L397E_F420M (unnamed lines), 50 g ai/ha) was 0%. For the same molecule, the pest or weed control at 100 g/ha ([11]; Table iii, AMATU_PPO2_L397E_F420V (unnamed lines), 100 g ai/ha) was 0%, the pest or weed control at 100 g/ha ([11]; Table iii, AMATU_PPO2_L397Q_F420V (unnamed lines), 100 g ai/ha) was 80% and the pest or weed control at 50 g/ha ([11]; Table iii, ARBTH WT MC 24 (non-transgenic), 50 g ai/ha + 1% MSO) was 100%. It also gave a pest or weed control at 100 g/ha ([11]; Table iii, ARBTH WT MC 24 (non-transgenic), 100 g ai/ha + 1% MSO) of 100%.

Reference: patent US12123010B2, “Plants having increased tolerance to herbicides” (BASF SE, priority 2017, dated 2024)
